The record followed here is patent publication US6696480B2, “Upregulation of type III endothelial cell nitric oxide synthase by agents that disrupt actin cytoskeletal organization” (Brigham and Women's Hospital, Inc., priority 1998, dated 2004).

For series [1], the system named is ecNOS protein. More on the design: ecNOS protein levels: dose or concentration left out as unconfirmed.
In the next series the test system is ecNOS. As to the kind of experiment: ecNOS activity, LNMA-inhibitable nitrite production (modified nitrite assay). The class given is cell-based, human. As to conditions: for nitrite production: L-mevalonate.
For the next series, the system named is ecNOS mRNA. In words: Northern blotting of ecNOS steady-state mRNA in endothelial cells. The series is classed as cell-based, human. Also on record: ecNOS mRNA levels increased to / ecNOS mRNA levels, % of basal levels / effect on basal ecNOS mRNA levels: unit of the concentration uncertain. As to conditions: for effect on ecNOS expression (mRNA): 24 hours (FIGS. 9, 11), anaphicoline data not shown. As to the method:
(§1) Equal amounts of total RNA (10-20 mg) were separated by 1.2% formaldehyde-agarose gel electrophoresis and transferred overnight onto Hybond nylon membranes. […] All Northern blots were subjected to stringent washing conditions (0.2× SSC/0.1% SDS at 65° C.) prior to autoradiography. RNA loading was determined by rehybridization with human GAPDH probe.

Series [2] concerns RhoA. In words: Rho GTP-binding activity, immunoprecipitation of [35S]GTP S-labeled RhoA. The class given is cell-based, human. Also on record: RhoA GTP-binding activity: dose or concentration left out as unconfirmed. As to the method:
(§2) The Rho GTP-binding activity was determined by immunoprecipitation of [^35 S]GTP S-labeled Rho. Briefly, membrane and cytosolic proteins were isolated as previously desribed (Liao, J K and Homcy, C J, J Clin Invest, 1993, 92:2168-2172). Proteins (20 mg) from control and treated endothelial cells were incubated for 30 min at 37° C. in a buffer containing [35 S]GTP S (20 nM), GTP (2 mM), MgCl22 (5 mM), EGTA (0.1 mM), NaCl (50 mM), creatinine phosphate (4 mM), phosphocreatinine kinase (5 units), ATP (0.1 mM), dithiothreitol (1 mM), leupeptin ([…]), aprotinin (50 mg/ml), and phenylmethanesulfonyl fluoride (PMSF, 2 mM). The assay was terminated with excess unlabeled GTP S (100 mM).
(§3) Samples were then resuspended in 100 ml of immunopricipitation buffer containing Triton-X (1%), SDS (0.1%), NaCl (150 mM), EDTA (5 mM), Tris-HCl (25 mM, pH 7.4), leupeptin (10 mg/ml), aprotinin (10 mg/ml), and PMSF (2 mM). […]
(§4) The pellets were washed four times in a buffer containing HEPES (50 mM, pH 7.4), NaF (100 mM), sodium phosphate (50 mM), NaCl (100 mM), Triton X-100 (1%), and SDS (0.1%). The final pellet containing the immunoprecipitated [35 S]GTP S-labeled Rho proteins was counted in a liquid scintillation counter (LS 1800, Beckman Instruments, Inc. Fullerton, Calif.). Nonspecific activity was determined in the presence of excess unlabeled GTP S (100 mM).

Series [3] deals with RhoB. As to the kind of experiment: Rho membrane translocation, immunoblot of membrane and cytosol, RhoB. As to conditions: mevastatin. The series is classed as cell-based, human. As to the method: (§5) Autoradiography was performed as described earlier.
For series [4], the system named is RhoB. In words: Rho GTP-binding activity, immunoprecipitation of [35S]GTP S-labeled RhoB. More on the design: RhoB GTP-binding activity: dose or concentration left out as unconfirmed. The series is classed as cell-based, human. How it is done:
as §2, §3, §4

Series [5] deals with RhoA. In words: Rho membrane translocation, immunoblot of membrane and cytosol, RhoA. As to conditions: mevastatin. The series is classed as cell-based, human. How it is done: as §5
In general terms: Immunoblotting shows a protein as a band on a membrane.

In series [6] the test system is ecNOS protein. As to the kind of experiment: Overexpression of Rho mutants, immunoblot of ecNOS protein. The class given is cell-based, bovine. As to conditions: about 24 h after transfection. As to the method:
For transfection studies, bovine rather than human endothelial cells were used because of their higher transfection efficiency by the calcium-phosphate precipitation method (12% vs <4%) (15). Bovine endothelial cells (60-70% confluent) were transfected with 15 mg of the indicated cDNAs: the insertless vector (pcDNA3), pcDNA3-c-myc-wtRhoA (wildtype RhoA), and pcDNA3-c-myc-N 19RhoA (dominant-negative RhoA mutant) (Gebbink, M et al., J Cell Biol, 1997, 137:1603-1613). As an internal control for transfection efficiency, pCMV. b-Gal plasmid (5 mg) was co-transfected. Preliminary results using b-galactosidase staining indicate that cellular transfection efficiency was approximately 10% to 14%. The b-galactosidase activity was determined by a chemiluminescence assay (Dual-Light, Tropix, Bedford, Mass.) using a Berthold L9501 luminometer. Approximately 24 h after transfection, cells were harvested for immunoblot analyses of ecNOS expression. The ecNOS protein levels were then standardized to the corresponding levels of transfected RhoA expression as determined by antisera to the corresponding c-myc tag.

Series [7] deals with cerebral ischemia, left middle cerebral artery (MCA) occlusion. In words: Murine model of cerebral vascular ischemia (MCA occlusion). The class given is in vivo, SV-129 mice. As to conditions: lovastatin, at higher relative concentrations (data not shown). The source says:
Ischemia was produced by occluding the left middle cerebral artery (MCA) with a coated 8.0 nylon monofilament under anesthesia as described (Huang, Z et al., J Cereb Blood Flow Metab, 1996, 16:981-987, Huang, Z et al., Science, 1994, 265:1883-1885, Hara, H et al., J Cereb Blood Flow Metab, 1997, 1:515-526). Arterial blood pressure, heart rate, arterial oxygen pressure, and partial pressure of carbon dioxide were monitored as described (Huang, Z et al., J Cereb Blood Flow Metab, 1996, 16:981-987, Huang, Z et al., Science, 1994, 265:1883-1885, Hara, H et al., J Cereb Blood Flow Metab, 1997, 1:515-526). The filaments were withdrawn after 2 hours and after 24 h, mice were either sacrificed or tested for neurological deficits using a well-established, standardized, observer-blinded protocol as described (Huang, Z et al., J Cereb Blood Flow Metab, 1996, 16:981-987, Huang, Z et al., Science, 1994, 265:1883-1885, Hara, H et al., J Cereb Blood Flow Metab, 1997, 1:515-526). The motor deficit score range from 0 (no deficit) to 2 (complete deficit).
Brains were divided into five coronal 2-mm sections using a mouse brain matrix (RBM-200C, Activated Systems, Ann Arbor, Mich., USA). Infarction volume was quantitated with an image analysis system (M4, St. Catharines, Ontario, Canada) on 2% 2,3,5-triphenyltetrazolium chloride stained 2-mm slices. The levels of serum cholesterol, creatinine and transaminases were determined by the Tufts University Veterinary Diagnostic Laboratory (Grafton, Mass.).

Series [8] relates to G-protein as and b-actin mRNA. In words: Northern blotting of G-protein as and b-actin mRNA (selectivity). The series is classed as cell-based, human. As to conditions: normoxic or hypoxic conditions. As to the method:
as §1

The mark [9] stands for this setting: mevastatin alone or in combination with GGPP or FPP.

Like-named read-outs stand apart in the source and are kept apart here.

From the text for human endothelial cells: Confluent endothelial cells were used for all treatment conditions.

Consider C3 transferase, for which the “increases in ecNOS expression at lower concentrations” value with ecNOS protein [1] is reported as “correspondingly smaller increases”. The “ecNOS protein levels augmented by” value with ecNOS protein [1] (48 h) was 250±10%. Further, the nitrite accumulation in the series with ecNOS is 31±2.1 nmol/500,000 cells/24 hours. Moreover, the “increase in nitrite accumulation” value with ecNOS (24 h) turned out to be 3 fold. Also, the “observable adverse effects on cellular morphology / viability” value in the series with human endothelial cells is recorded as “no observable adverse effects”.
Turning to `COC(=O)Nc1nc2cc(C(=O)c3cccs3)ccc2[nH]1` [nocodazole, Methyl-(5-[2-thienylcarbonyl]-1H-benzimidazol-2-yl)carbamate], the “effect on ecNOS expression (mRNA)” value in the series on ecNOS mRNA is on record as “do not increase ecNOS expression”.
For the compound `CC(=O)C(C)=NO` [BDM, 2,3-butanedione 2-monoxime], the “nonspecific cytotoxicity as cause of increased ecNOS expression” value with human endothelial cells is recorded as “does not result from nonspecific cytotoxicity”.
On to `CC[C@H](C)C(=O)O[C@H]1CCC=C2C=C[C@H](C)[C@H](CC[C@@H]3C[C@@H](O)CC(=O)O3)[C@H]21` [mevastatin, Mevastatin], for which, in the series on RhoA [2] (setting [9]), the “effect on cytosolic RhoA activity” value is “not affected”. Besides, in the series on ecNOS mRNA (upregulation of ecNOS), the “potency on a molar basis compared to simvastatin” value was “approximately ten times less potent” and the “potency on a molar basis compared with lovastatin” value is reported as “equally potent”. In the series with RhoB [3], the “decrease in membrane localization of RhoB” value worked out at 78±6% and the “increase in RhoB in the cytosol” value was found to be 87±7%. Further, the “effect on cytosolic RhoB activity” value in the series on RhoB [4] (setting [9]) is “not affected”. Also, in the series with RhoA [5], the “decrease in membrane localization of RhoA” value is given as 60±5% and the “increase in RhoA in the cytosol” value is on record as 65±4%. In the series on human endothelial cells, the concentrations that produce cytotoxicity is greater than 50 µM and the “observable adverse effects on cellular morphology / viability” value is on record as “no observable adverse effects”.
Turning to `CC(C)=CCC/C(C)=C/CC/C(C)=C/COP(=O)(O)OP(=O)(O)O` [FPP, farnesylpyrophosphate], the “RhoB GTP-binding activity” value with RhoB [4] was determined as 2.7 ± 0.5 fmol/mg/min. In addition, the “observable adverse effects on cellular morphology / viability” value in the series on human endothelial cells is on record as “no observable adverse effects”.
On to `CC(C)=CCC/C(C)=C/CC/C(C)=C/CC/C(C)=C/COP(=O)(O)OP(=O)(O)O` [GGPP, geranylgeranylpyrophosphate], for which the “RhoA GTP-binding activity” value in the series on RhoA [2] turned out to be 4.1 ± 0.3 fmol/mg/min. The “effect on basal ecNOS mRNA levels” value in the series on ecNOS mRNA (GGPP (10 (unit uncertain)) alone) is on record as “did not significantly affect”. Also, in the series on human endothelial cells, the “observable adverse effects on cellular morphology / viability” value is listed as “no observable adverse effects”.
With “wtRhoA: c-myc-tagged wildtype RhoA overexpressed by transfection”, the “reduction of basal ecNOS protein expression” value in the series with ecNOS protein [6] is on record as 15±4%.
Consider anaphicoline, for which, in the series on ecNOS mRNA, the “effect on ecNOS expression (mRNA)” value is recorded as “do not increase ecNOS expression”.
N19RhoA: in the series on ecNOS protein [6], the “increase in ecNOS protein levels” value is recorded as 150±5%.
Take `CC[C@H](C)C(=O)O[C@H]1C[C@@H](C)C=C2C=C[C@H](C)[C@H](CC[C@@H]3C[C@@H](O)CC(=O)O3)[C@H]21` [lovastatin]: in series [7], the “reduction of cerebral infarct size” value is given as “also occurred with lovastatin treatment”. Besides, the “effect on ecNOS expression” value in the series on ecNOS protein [1] (not chemically-activated statin (10)) was “no effect”. For the same compound, in the series on ecNOS mRNA (co-treatment with ox-LDL, lovastatin 10 mmol/L, 24 h), the “increase in ecNOS mRNA levels compared to ox-LDL alone” value amounted to 3.6 fold. The “ecNOS message increased to” value came to 410±21% with ecNOS mRNA (lovastatin (10 μM) alone) and 350±27% in the series on ecNOS mRNA (lovastatin (10 μM) under hypoxia). In addition, the “increase in ecNOS mRNA levels compared to untreated cells” value in the series on ecNOS mRNA (lovastatin alone) worked out at 36%. The “increase in ecNOS mRNA level compared to untreated cells” value with ecNOS mRNA (ox-LDL + lovastatin 10 mmol/L, 24 h) was determined as 40±9%. Also, the “change in G-protein as and b-actin mRNA levels” value in series [8] is “Neither simvastatin nor lovastatin caused any significant change”. The “concentration giving similar findings on ecNOS activity, compared to that of simvastatin” value with ecNOS (normoxia and hypoxia) amounted to 10 fold higher.
As to L-mevalonate, the “effect of co-treatment on upregulation of ecNOS expression by simvastatin alone” value in the series on ecNOS protein [1] (L-mevalonate (100) + simvastatin (1)) is listed as “completely reversed”. Also, the “effect on basal ecNOS expression” value in the series on ecNOS protein [1] (L-mevalonate alone (100)) is reported as “did not have any appreciable effects”. The ecNOS protein levels was found to be 35±2.4% in the series with ecNOS protein [1] (L-mevalonic acid (400) co-treatment with simvastatin, hypoxia, 48 h) and 25±3.9% with ecNOS protein [1] (L-mevalonic acid alone, cells exposed to hypoxia). Moreover, the nitrite production in the series with ecNOS is given as 8.6±2.9 nmol/500,000 cells/24 h; in the series with ecNOS (3% O2), 9.6±1.3 nmol/500,000 cells/24 h. Besides, in the series with human endothelial cells, the “observable adverse effects on cellular morphology / viability” value is reported as “no observable adverse effects”.
On to `C=C1[C@@H](C)[C@H]2[C@H](Cc3ccccc3)NC(=O)[C@]23[C@H](OC(C)=O)/C=C/[C@@](C)(O)C(=O)[C@@H](C)C/C=C/[C@H]3[C@@H]1O` [Cytochalasin D], for which, in the series on ecNOS mRNA, the “effect on ecNOS expression (mRNA)” value was “upregulation of ecNOS”. Also, the “nonspecific cytotoxicity as cause of increased ecNOS expression” value in the series on human endothelial cells is listed as “does not result from nonspecific cytotoxicity”.
